Measurements reported in the NIST ThermoML archive (doi:10.1021/je4009238).

What was measured:
[1] = xn = mol fraction of the nth substance listed; details: 101 kPa, Liquid
[2] = refractive index (Na D-line) (dimensionless); xn = mol fraction of the nth substance listed; details: 101 kPa, Liquid
[3] = 101 kPa, Liquid
[4] = refractive index (Na D-line) (dimensionless); details: 101.33 kPa, Liquid

CCCCCCn1cc[n+](C)c1.[Cl-] [1-hexyl-3-methylimidazolium chloride] + CN(C)C=O
Details	mass density, [1] [kg/m3]	refractive index, [2]	viscosity, [1] [mPa·s]
288.15 K, x1 = 0.0312	964.44	1.44088	1.271
288.15 K, x1 = 0.0646	973.48	1.44818	1.715
288.15 K, x1 = 0.102	982	1.45488	2.392
288.15 K, x1 = 0.1456	990.33	1.46175	4.166
288.15 K, x1 = 0.196	998.49	1.46836	6.28
288.15 K, x1 = 0.2502	1005.77	1.47473	10.77
288.15 K, x1 = 0.3144	1013.08	1.4808	17.98
288.15 K, x1 = 0.3893	1020.04	1.48693	32.59
288.15 K, x1 = 0.4796	1026.84	1.49278	65.31
288.15 K, x1 = 0.591	1033.55	1.49886	134.94
288.15 K, x1 = 0.7249	1039.53	1.50429	232.47
288.15 K, x1 = 1	1047.99	1.5125	–
298.15 K, x1 = 0.0312	955.32	1.43634	1.097
298.15 K, x1 = 0.0646	964.62	1.44359	1.451
298.15 K, x1 = 0.102	973.43	1.45059	2.064
298.15 K, x1 = 0.1456	982.06	1.45751	2.874
298.15 K, x1 = 0.196	990.57	1.46433	4.815
298.15 K, x1 = 0.2502	998.08	1.47086	7.927
298.15 K, x1 = 0.3144	1005.74	1.47702	12.52
298.15 K, x1 = 0.3893	1012.97	1.48213	21.49
298.15 K, x1 = 0.4796	1019.96	1.48933	40.25
298.15 K, x1 = 0.591	1026.93	1.49567	76.98
298.15 K, x1 = 0.7249	1033.24	1.50108	178.3
298.15 K, x1 = 1	1042.2	1.50953	–
308.15 K, x1 = 0.0312	946.13	1.43187	0.961
308.15 K, x1 = 0.0646	955.75	1.43909	1.249
308.15 K, x1 = 0.102	964.86	1.44632	1.733
308.15 K, x1 = 0.1456	973.81	1.4533	2.348
308.15 K, x1 = 0.196	982.59	1.46038	3.817
308.15 K, x1 = 0.2502	990.42	1.46695	6.056
308.15 K, x1 = 0.3144	998.35	1.47335	9.115
308.15 K, x1 = 0.3893	1005.87	1.47856	15.08
308.15 K, x1 = 0.4796	1013.14	1.48595	26.46
308.15 K, x1 = 0.591	1020.36	1.49237	47.62
308.15 K, x1 = 0.7249	1026.94	1.49797	75.17
308.15 K, x1 = 1	1036.43	1.50667	2044.2
318.15 K, x1 = 0.0312	936.91	1.42765	0.852
318.15 K, x1 = 0.0646	946.92	1.43468	1.091
318.15 K, x1 = 0.102	956.28	1.44219	1.489
318.15 K, x1 = 0.1456	965.63	1.44909	1.957
318.15 K, x1 = 0.196	974.62	1.45652	3.113
318.15 K, x1 = 0.2502	982.82	1.46293	4.77
318.15 K, x1 = 0.3144	990.96	1.46974	6.88
318.15 K, x1 = 0.3893	998.8	1.47497	10.95
318.15 K, x1 = 0.4796	1006.38	1.48264	18.37
318.15 K, x1 = 0.591	1013.87	1.48916	31.33
318.15 K, x1 = 0.7249	1020.7	1.49498	47.69
318.15 K, x1 = 1	1030.62	1.5039	884.2

CCCCCCCC[n+]1ccn(C)c1.[Cl-] [1-methyl-3-octylimidazolium chloride]
Details	mass density, 288.15 K [kg/m3]	mass density, 298.15 K [kg/m3]	mass density, 308.15 K [kg/m3]	mass density, 318.15 K [kg/m3]	refractive index, 288.15 K	refractive index, 298.15 K	refractive index, 308.15 K	refractive index, 318.15 K	viscosity, 308.15 K [mPa·s]	viscosity, 318.15 K [mPa·s]
[3]	1022.06	1015.97	1009.8	1003.62	–	–	–	–	155.03	65.95
[4]	–	–	–	–	1.49008	1.48709	1.48413	1.48122	–	–

CCCCCCn1cc[n+](C)c1.[Cl-] [1-hexyl-3-methylimidazolium chloride]
Details	mass density, 288.15 K [kg/m3]	mass density, 298.15 K [kg/m3]	mass density, 308.15 K [kg/m3]	mass density, 318.15 K [kg/m3]	refractive index, 288.15 K	refractive index, 298.15 K	refractive index, 308.15 K	refractive index, 318.15 K	viscosity, 308.15 K [mPa·s]	viscosity, 318.15 K [mPa·s]
[3]	1047.99	1042.2	1036.43	1030.62	–	–	–	–	2044.2	884.2
[4]	–	–	–	–	1.5125	1.50953	1.50667	1.5039	–	–

CN(C)C=O [dimethylformamide] + CCCCn1cc[n+](C)c1.[Cl-]
x2 = 0
Details	mass density, [1] [kg/m3]	refractive index, [2]	viscosity, [1] [mPa·s]
288.15 K	953.79	1.43304	0.936
298.15 K	944.26	1.42858	0.825
308.15 K	934.69	1.42381	0.736
318.15 K	925.16	1.41909	0.665

CN(C)C=O [dimethylformamide] + CCn1cc[n+](C)c1.[Cl-]
x2 = 0
Details	mass density, [1] [kg/m3]	refractive index, [2]	viscosity, [1] [mPa·s]
288.15 K	953.79	1.43304	0.936
298.15 K	944.26	1.42858	0.825
308.15 K	934.69	1.42381	0.736
318.15 K	925.16	1.41909	0.665

CN(C)C=O [dimethylformamide]
Details	mass density, [3] [kg/m3]	refractive index, [4]	viscosity, [3] [mPa·s]
288.15 K	953.79	1.43304	0.936
298.15 K	944.26	1.42858	0.825
308.15 K	934.69	1.42381	0.736
318.15 K	925.16	1.41909	0.665

CCCCCCCC[n+]1ccn(C)c1.[Cl-] [1-methyl-3-octylimidazolium chloride] + CN(C)C=O
Details	mass density, [1] [kg/m3]	refractive index, [2]	viscosity, [1] [mPa·s]
288.15 K, x1 = 0.0306	962.61	1.4392	1.617
288.15 K, x1 = 0.0647	970.04	1.44535	2.007
288.15 K, x1 = 0.1021	976.96	1.4504	2.763
288.15 K, x1 = 0.1457	983.52	1.45598	4.132
288.15 K, x1 = 0.1939	989.54	1.46074	5.958
288.15 K, x1 = 0.2496	995.13	1.46531	8.425
288.15 K, x1 = 0.3143	1000.4	1.46967	13.28
288.15 K, x1 = 0.39	1005.26	1.47407	20.46
288.15 K, x1 = 0.4809	1009.79	1.47791	34.23
288.15 K, x1 = 0.5908	1013.76	1.48169	60.63
288.15 K, x1 = 0.7259	1017.15	1.48534	122.33
288.15 K, x1 = 1	1022.06	1.49008	–
298.15 K, x1 = 0.0306	953.41	1.43459	1.348
298.15 K, x1 = 0.0647	961.21	1.44113	1.629
298.15 K, x1 = 0.1021	968.34	1.44613	2.262
298.15 K, x1 = 0.1457	975.24	1.45203	3.234
298.15 K, x1 = 0.1939	981.46	1.45641	4.582
298.15 K, x1 = 0.2496	987.32	1.46173	6.215
298.15 K, x1 = 0.3143	992.89	1.46588	9.498
298.15 K, x1 = 0.39	997.98	1.47066	14.03
298.15 K, x1 = 0.4809	1002.82	1.47429	22.18
298.15 K, x1 = 0.5908	1006.97	1.47835	37.33
298.15 K, x1 = 0.7259	1010.6	1.48212	69.31
298.15 K, x1 = 1	1015.97	1.48709	–
308.15 K, x1 = 0.0306	944.19	1.43007	1.172
308.15 K, x1 = 0.0647	952.27	1.4361	1.448
308.15 K, x1 = 0.1021	959.68	1.44189	1.909
308.15 K, x1 = 0.1457	966.87	1.44766	2.615
308.15 K, x1 = 0.1939	973.37	1.45241	3.636
308.15 K, x1 = 0.2496	979.5	1.45731	4.753
308.15 K, x1 = 0.3143	985.36	1.46212	7.07
308.15 K, x1 = 0.39	990.69	1.46672	10.12
308.15 K, x1 = 0.4809	995.8	1.47089	15.15
308.15 K, x1 = 0.5908	1000.19	1.47504	24.36
308.15 K, x1 = 0.7259	1004.44	1.47897	43.04
308.15 K, x1 = 1	1009.8	1.48413	155.03
318.15 K, x1 = 0.0306	934.98	1.42562	1.013
318.15 K, x1 = 0.0647	943.27	1.43143	1.289
318.15 K, x1 = 0.1021	951.06	1.438	1.661
318.15 K, x1 = 0.1457	958.48	1.44342	2.182
318.15 K, x1 = 0.1939	965.3	1.44849	2.97
318.15 K, x1 = 0.2496	971.71	1.45347	3.753
318.15 K, x1 = 0.3143	977.79	1.4586	5.427
318.15 K, x1 = 0.39	983.45	1.46306	7.536
318.15 K, x1 = 0.4809	988.76	1.46765	10.77
318.15 K, x1 = 0.5908	993.39	1.47179	16.68
318.15 K, x1 = 0.7259	997.95	1.47589	28.25
318.15 K, x1 = 1	1003.62	1.48122	65.95

CN(C)C=O [dimethylformamide] + CCCCCCCC[n+]1ccn(C)c1.[Cl-]
x2 = 0
Details	mass density, [1] [kg/m3]	refractive index, [2]	viscosity, [1] [mPa·s]
288.15 K	953.79	1.43304	0.936
298.15 K	944.26	1.42858	0.825
308.15 K	934.69	1.42381	0.736
318.15 K	925.16	1.41909	0.665

CN(C)C=O [dimethylformamide] + CCCCCCn1cc[n+](C)c1.[Cl-]
x2 = 0
Details	mass density, [1] [kg/m3]	refractive index, [2]	viscosity, [1] [mPa·s]
288.15 K	953.79	1.43304	0.936
298.15 K	944.26	1.42858	0.825
308.15 K	934.69	1.42381	0.736
318.15 K	925.16	1.41909	0.665
